This note sets out measurements from patent US8414989B2, “Cyclodextrin compositions, articles, and methods” (Cellresin Technologies, LLC, priority 2011, dated 2013).

Common to all, as to type: physicochemical
Data set [1] in a line: Example 3: 1-MCP headspace release versus wt-% 1-MCP/c/α-CD in UV-cured coating. The conditions noted are these: 2.5 cm x 10 cm, 250 mL bottle, 20 μL water, 24 hours. The procedure:
A 20 mL bottle was charged with 9.6 g of UV Coating VP 10169/60 MF-2NE (obtained from Verga GmbH of Aschau am Inn, Germany). Then 0.4 g of 1-MCP/α-cyclodextrin complex (4.7% 1-MCP obtained from AgroFresh of Spring House, Pa.) termed “1-MCP/c/α-CD” was added to the bottle. The bottle was then firmly capped and shaken by hand by hand until the blends appear uniformly dispersed, resulting in a 4.0 wt-% 1-MCP/c/α-CD blend. Three additional blends containing 2.0 wt-%, 1.0 wt-% and 0.5 wt-% of 1-MCP/c/α-CD were prepared in the same manner.
A rubber ink roller was used to deliver a thin (nominally 0.3 μm) coating to a 20 cm by 20 cm polyethylene extrusion coated paper sheet using the technique of Example 2.
Using razor blade, 2.5 cm×10 cm rectangles were cut from the coated portion of each of the sheets. Then the coated rectangular sheets were cured using the procedure of Example 2. Each cured, coated rectangle was placed in a 250 mL serum bottle. The bottle was then sealed with TEFLON® faced silicone septa. Then 20 μL of deionized water was injected into each bottle. […] Headspace was analyzed for 1-MCP 24 hours after the injection of water, using the technique employed in Example 2, and employing the 6-point 1-butene calibration curve as described in Example 2. Table 2 and FIG. 2 give the 24-hour average 1-MCP headspace concentration and standard deviation for each of the coated and cured rectangular sheets.

The nature of data set [2]: Example 5: 1-MCP headspace release versus wt-% 1-MCP/c/α-CD and time. The conditions noted are these: 5 cm x 10 cm, 250 mL bottle, water injected, average. The procedure: Using a razor blade, six 5 cm×10 cm rectangles were cut from the coated portions of 20 cm by 20 cm sheets prepared as in Example 3 and having 1.0 wt-%, 2.0 wt-% and 4.0 wt-% 1-MCP/c/α-CD, and the coated rectangles were cured according to the technique of Example 2. The rectangles were individually placed in 250 mL serum bottles. The bottles were sealed with TEFLON® faced silicone septa. Then […] of deionized water was injected into each bottle. […] Bottle headspace was analyzed at 4, 8, 24 and 48 hours after the injection of water, using the technique of Example 3. The results are provided in Table 4 and FIG. 4 and give the average headspace concentration and standard deviation for the different wt-% 1-MCP/c/α-CD coatings as a function of time.

The nature of data set [3]: Example 7: 1-MCP permeation through polyethylene film from PSA label into 1,000 mL headspace. To be noted: 11 cm diameter PSA label on 25 μm PE film, 1,000 mL kettle. The source says:
This method is designed to measure the permeability of 1-MCP through polyethylene film into a confined, fixed volume headspace following release from a PSA label adhered to the surface of the film defining the fixed volume. The methodology simulates the headspace of a flexible film package having initially low relative humidity, wherein a PSA label containing 1-MCP is adhered to the outside of the package. As the humidity rises inside the package by respiration of fresh agricultural products, the water vapor increases in concentration and it diffuses through the package film to the outside environment but also into the PSA. Thus, as the water vapor diffuses through the film into the 1-MCP adhesive label adhered to the outside of the package film; 1-MCP released from the label adhesive into the fixed volume (headspace) was measured.
A coated, cured labelstock sheet made according to the procedure of Example 6 was cut by hand into an 11 cm diameter circle. Next the PET liner was removed from the label and the label was adhered via the PSA to a 13.5 cm diameter, 1 mil (25 μm) thick polyethylene (PE) film (obtained from the Pliant Corporation of Schaumburg, Ill.). The paper side of this structure was then covered with aluminum foil. The foil/paper/PSA/PE layered structure was mounted onto the open end of a 1,000 mL glass reaction kettle bottom (6947-1LBO, from Corning Glass of Corning, N.Y.) and sealed to the kettle's glass flange using aluminum sealing rings. The layered structure was oriented over the 11 cm opening with the PE film facing in and the aluminum facing out. The glass reaction kettle was modified with a silicone septum port to allow sampling of the 1,000 mL headspace. Headspace analysis was conducted by removing 250 μL of headspace volume from the 1,000 mL glass kettle and analyzing according to the technique of Example 3.
Then 200 μL of water was added through the septum port to the inside of the glass kettle. The headspace was analyzed for 1-MCP at 17, 25 and 90 hours after the injection of water using the technique employed in Example 3. At 17 hours, 25 hours, and 90 hours after injection of the water, the 1-MCP headspace concentration was 3.6 ppm, 7.0 ppm and 8.0 ppm of 1-MCP, respectively.

On to `CC1=CC1` [1-MCP, 1-methylcyclopropene], for which the “Headspace concentration of 1-MCP, Ave.” value in data set [1] (0.5 wt-% 1-MCP/c/α-CD coating) is 0.09 ppm (v/v); in data set [1] (1 wt-% 1-MCP/c/α-CD coating), 0.20 ppm (v/v); in data set [1] (2 wt-% 1-MCP/c/α-CD coating) it was 0.56 ppm (v/v); in data set [1] (4 wt-% 1-MCP/c/α-CD coating), 1.1 ppm (v/v). In addition, the “1-MCP in Headspace” value in data set [2] (1 wt-% 1-MCP/c/α-CD coated, 4 hours) came out at 0.96 ppm-v/v; in data set [2] (1 wt-% 1-MCP/c/α-CD coated, 8 hours), 2.0 ppm-v/v; in data set [2] (1 wt-% 1-MCP/c/α-CD coated, 24 hours) it was 3.6 ppm-v/v; in data set [2] (1 wt-% 1-MCP/c/α-CD coated, 48 hours), 4.0 ppm-v/v; in data set [2] (2 wt-% 1-MCP/c/α-CD coated, 4 hours), 3.5 ppm-v/v; in data set [2] (2 wt-% 1-MCP/c/α-CD coated, 8 hours), 7.8 ppm-v/v. In addition, the “1-MCP in Headspace” value was determined as 17.8 ppm-v/v in data set [2] (2 wt-% 1-MCP/c/α-CD coated, 24 hours); 21.2 ppm-v/v in data set [2] (2 wt-% 1-MCP/c/α-CD coated, 48 hours); 7.5 ppm-v/v in data set [2] (4 wt-% 1-MCP/c/α-CD coated, 4 hours); 13.5 ppm-v/v in data set [2] (4 wt-% 1-MCP/c/α-CD coated, 8 hours); 24.0 ppm-v/v in data set [2] (4 wt-% 1-MCP/c/α-CD coated, 24 hours); 28.0 ppm-v/v in data set [2] (4 wt-% 1-MCP/c/α-CD coated, 48 hours). Also, the 1-MCP headspace concentration is reported as 3.6 ppm in data set [3] (200 μL water, 17 hours); 7.0 ppm in data set [3] (200 μL water, 25 hours); 8.0 ppm in data set [3] (200 μL water, 90 hours); < 0.01 ppm in data set [3] (no added water, two hours).
